The values that follow come from article PMC10549826 (Antiviral research, 2023).

Common to all, as to format: biochemical, influenza A(H3N2) virus
Test [1] addresses A/Victoria/361/2011 NA with T439R (Q136, T148, R150, R439) (Influenza A virus, UniProt G9LQ08, H150R/T439R).
The target in test [2] is A/Victoria/361/2011 NA with T148I (Q136, I148, R150, T439) (Influenza A virus, UniProt G9LQ08, H150R/T148I).
For test [3], the target named is A/Victoria/361/2011 NA with R150H (Q136, T148, H150, T439) (Influenza A virus, UniProt G9LQ08).
The target of test [4] is A/Victoria/361/2011 NA with Q136K (K136, T148, R150, T439) (Influenza A virus, UniProt G9LQ08, H150R/Q136K).

Each structure is given as a SMILES string.

Regarding `CCC(CC)[C@H](NC(C)=O)[C@@H]1[C@H](O)[C@@H](C(=O)O)C[C@H]1N=C(N)N` [Peramivir, peramivir], the half-maximal inhibitory concentration (IC50) in test [1] came to 240 pM; in test [2] it was 90 pM; in test [3], 80 pM; in test [4], 560 pM. The IC50 fold-change in test [1] is recorded as 0.24 ± 0.04 (3) fold; in test [2], 0.09 ± 0.01 (1) fold; in test [3] it was 0.08 ± 0.01 (1) fold; in test [4], 0.56 ± 0.09 (8) fold.
